Reference: patent publication US20110195845A1, “Constructs for Expressing Herbicide Tolerance Genes, Related Plants, and Related Trait Combinations” (Dow AgroSciences LLC, priority 2008, published 2011)

Assays:
[1] = system: Escherichia coli BL21-Star (DE3) with CsVMV promoter//PAT (3037); test: Viral promoter driven complementation on glufosinate, plasmid 3037; type: cell-based; details: 48 hrs @37 C; note: key: ++++ = Heavy Lawn Growth; +++ = Lawn Growth; ++ = Lots of Distinct Colonies; + = Scattered Colony Growth
Protocol: (§1) Plasmid constructs in which the DSM-2 (v2) and PAT gene coding sequences were expressed, under either the viral promoters CsVMV or the plant promoter AtUbi10, were assayed for complementation on minimal media containing glufosinate. The plasmids 3778 (Rb7 MARv3//AtUbi10 promoter//DSM-2 (v2)//Atu Orf 1 3′UTR), 3779 (Rb7 MARv3//AtUbi10 promoter//PAT//Atu Orf 1 3′UTR), 3264 (CsVMV promoter//DSM-2//Atu Orf 24 3′UTR), 3037 (CsVMV promoter//PAT//Atu Orf 25/26 3′UTR), and 770 (control plasmid containing CsVMV promoter//GUS v3//Atu Orf 24 3′UTR) were transformed into Escherichia coli BL21-Star (DE3) and grown up in complex media. Five microliters of the cultures were plated on minimal media containing increasing concentrations of Glufosinate and incubated at 37° C. for 48 hours.

[2] = system: Escherichia coli BL21-Star (DE3) with CsVMV promoter//DSM-2 (3264); test: Viral promoter driven complementation on glufosinate, plasmid 3264; type: cell-based; details: for bacterial growth on minimal media: 48 hrs @37 C; for bacterial growth on minimal media: key: ++++ = Heavy Lawn Growth; +++ = Lawn Growth; ++ = Lots of Distinct Colonies; + = Scattered Colony Growth
Protocol: as §1

Wildtype Arabidopsis = test: Arabidopsis response to glufosinate applied postemergence; type: in vivo, Arabidopsis thaliana; details: for % Injury Ave / individuals with % Injury 20-40% / individuals with % Injury <20% / individuals with % Injury >40%: 2 WAT
Protocol: Seven days after planting (DAP) and again 11 DAP, T1 plants (cotyledon and 2-4-1f stage, respectively) were sprayed with a 0.016% solution of 2,4-D herbicide (456 g ae/L 2,4-D Amine 4, Dow AgroSciences LLC, Indianapolis, Ind.) at a spray volume of 10 ml/tray (703 L/ha) using a DeVilbiss compressed air spray tip to deliver an effective rate of 50 g ae/ha 2,4-D DMA per application. Survivors (plants actively growing) were identified 4-7 days after the final spraying and transplanted individually into 3-inch pots prepared with potting media (Metro Mix 360). Transplanted plants were covered with humidity domes for 3-4 days and placed in a 22° C. growth chamber as before or moved to directly to the greenhouse. Domes were subsequently removed and plants reared in the greenhouse (22±5° C., 50±30% RH, 14 h light:10 dark, minimum 500 μE/m^2s^1 natural+supplemental light) at least 1 day prior to testing for the ability of DSM-2 (v2) to provide glufosinate herbicide resistance.
T1 plants were then randomly assigned to various rates of glufosinate. For Arabidopsis 140 g ai/ha glufosinate is an effective dose to distinguish sensitive plants from ones with meaningful levels of resistance. Elevated rates were also applied to determine relative levels of resistance (280, 560, or 1120 g ai/ha).
All glufosinate herbicide applications were applied by track sprayer in a 187 L/ha spray volume. The commercial Liberty™ formulation (200 g ai/L, Bayer Crop Science, Research Triangle Park, N.C.).
The first Arabidopsis transformations were conducted using DSM-2 (v2) (plant optimized gene). T1 transformants were first selected from the background of untransformed seed using a 2,4-D DMA selection scheme. Over 100,000 T1 seed were screened and 260 2,4-D resistant plants (AAD-12 gene) were identified, equating to a transformation/selection frequency of 0.26% which is slightly higher than the normal range of selection frequency of constructs where AAD-12+2,4-D are used for selection. T1 plants selected above were subsequently transplanted to individual pots and sprayed with various rates of commercial glufosinate herbicide. Table 10 compares the response of DSM-2 (v2) and control genes to impart glufosinate resistance to Arabidopsis T1 transformants. Response is presented in terms of % visual injury 2 WAT. […] Since each T1 is an independent transformation event, one can expect significant variation of individual T1 responses within a given rate. An arithmetic mean and standard deviation is presented for each treatment. Untransformed-wildtype Arabidopsis served as a glufosinate sensitive control. The DSM-2 (v2) gene imparted herbicide resistance to individual T1 Arabidopsis plants. Within a given treatment, the level of plant response varied greatly and can be attributed to the fact each plant represents an independent transformation event. Of important note, at above 140 g ai/ha glufosinate, there were individuals that were unaffected while some were severely affected.

[3] = system: Agrobacterium tumefaciens LBA4404s; test: Bacterial strain response to glufosinate on minimal media; type: cell-based; parameters: key: +++ = Heavy Lawn Growth; ++ = Light lawn growth; + = patchy lawn growth; −− = No Growth; details: 48 hrs @ 25 C
Protocol: (§2) Selected cell lines of Escherichia coli and Agrobacterium tumefaciens were inoculated on minimal media containing incrementally increasing concentrations of Glufosinate (BASTA). The cell lines; BL21-Star (DE3), Top10, DH5α, Agrobacterium tumefaciens C58, and Agrobacterium tumefaciens LBA4404s were initially grown up on complex media. The Escherichia coli strains were grown in LB and the Agrobacterium tumefaciens strains were grown in YEP. Five microliters of bacterial culture was inoculated and dispersed evenly onto minimal media plates containing various concentrations of glufosinate. The concentrations consisted of 0 μg/ml, 250 μg/ml, 500 μg/ml, 1000 μg/ml, 2000 μg/ml, and 4000 μg/ml of BASTA. In addition, the bacterial strains were inoculated onto a plate of complex media as a control—Agrobacterium tumefaciens strains were inoculated on YEP agar plates, and Escherichia coli strains were inoculated on LB agar plates. The plates containing the Escherichia coli strains were incubated at 37° C. for 24 hours. The plates containing the Agrobacterium tumefaciens strains were incubate at 25° C. for 48 hours. […] Table 7 illustrates the capability of the various strains to grow on minimal media containing glufosinate.

[4] = system: Agrobacterium tumefaciens C58; test: as above; type: cell-based; parameters: key: +++ = Heavy Lawn Growth; ++ = Light lawn growth; + = patchy lawn growth; −− = No Growth; details: 48 hrs @ 25 C
Protocol: as §2

[5] = 140 g ai/ha glufosinate postemergence
[6] = 280 g ai/ha glufosinate postemergence
[7] = 560 g ai/ha glufosinate postemergence
[8] = 1120 g ai/ha glufosinate postemergence

CP(=O)(O)CCC(N)C(=O)O (centres unmarked) [glufosinate]
bacterial growth on minimal media ([1]; 250 μg/ml BASTA): ++
bacterial growth on minimal media ([1]; 500 μg/ml BASTA): +
bacterial growth on minimal media ([2]; 250 μg/ml BASTA): ++
bacterial growth on minimal media ([2]; 500 μg/ml BASTA): +
concentration in minimal media to which promoter-driven DSM-2 provided resistance ([2]; CsVMV promoter, minimal media): 200 µg/mL
% Injury Ave (Wildtype Arabidopsis; [5]): 98.0%
individuals with % Injury 20-40% (Wildtype Arabidopsis; [5]): 0
individuals with % Injury <20% (Wildtype Arabidopsis; [5]): 0
individuals with % Injury >40% (Wildtype Arabidopsis; [5]): 10
% Injury Ave (Wildtype Arabidopsis; [6]): 100.0%
individuals with % Injury 20-40% (Wildtype Arabidopsis; [6]): 0
individuals with % Injury <20% (Wildtype Arabidopsis; [6]): 0
individuals with % Injury >40% (Wildtype Arabidopsis; [6]): 10
% Injury Ave (Wildtype Arabidopsis; [7]): 100.0%
individuals with % Injury 20-40% (Wildtype Arabidopsis; [7]): 0
individuals with % Injury <20% (Wildtype Arabidopsis; [7]): 0
individuals with % Injury >40% (Wildtype Arabidopsis; [7]): 10
% Injury Ave (Wildtype Arabidopsis; [8]): 100.0%
individuals with % Injury 20-40% (Wildtype Arabidopsis; [8]): 0
individuals with % Injury <20% (Wildtype Arabidopsis; [8]): 0
individuals with % Injury >40% (Wildtype Arabidopsis; [8]): 10
effective dose to distinguish sensitive plants from ones with meaningful levels of resistance (Wildtype Arabidopsis; Arabidopsis): 140 g ai/ha
bacterial growth on minimal media ([3]; 250 μg/ml BASTA): +++
bacterial growth on minimal media ([3]; 500 μg/ml BASTA): ++
bacterial growth on minimal media ([3]; 1000 μg/ml BASTA): ++
bacterial growth on minimal media ([3]; 2000 μg/ml BASTA): +
bacterial growth on minimal media ([3]; 4000 μg/ml BASTA): −−
bacterial growth on minimal media ([4]; 250 μg/ml BASTA): +++
bacterial growth on minimal media ([4]; 500 μg/ml BASTA): +++
bacterial growth on minimal media ([4]; 1000 μg/ml BASTA): +++
bacterial growth on minimal media ([4]; 2000 μg/ml BASTA): ++
bacterial growth on minimal media ([4]; 4000 μg/ml BASTA): −−
